Test results as given in publication PMC5562448 (Chembiochem : a European journal of chemical biology, 2017).

What was measured:
HSPA8 = HSPA8 (Homo sapiens, UniProt P11142); assay: isothermal titration calorimetry; assay type: binding; conditions: n=1.1
HSPA1A = HSPA1A (Homo sapiens, UniProt P0DMV8); assay: isothermal titration calorimetry; assay type: binding; conditions: n=0.9
Sequence of HSPA1A (P0DMV8 2-641): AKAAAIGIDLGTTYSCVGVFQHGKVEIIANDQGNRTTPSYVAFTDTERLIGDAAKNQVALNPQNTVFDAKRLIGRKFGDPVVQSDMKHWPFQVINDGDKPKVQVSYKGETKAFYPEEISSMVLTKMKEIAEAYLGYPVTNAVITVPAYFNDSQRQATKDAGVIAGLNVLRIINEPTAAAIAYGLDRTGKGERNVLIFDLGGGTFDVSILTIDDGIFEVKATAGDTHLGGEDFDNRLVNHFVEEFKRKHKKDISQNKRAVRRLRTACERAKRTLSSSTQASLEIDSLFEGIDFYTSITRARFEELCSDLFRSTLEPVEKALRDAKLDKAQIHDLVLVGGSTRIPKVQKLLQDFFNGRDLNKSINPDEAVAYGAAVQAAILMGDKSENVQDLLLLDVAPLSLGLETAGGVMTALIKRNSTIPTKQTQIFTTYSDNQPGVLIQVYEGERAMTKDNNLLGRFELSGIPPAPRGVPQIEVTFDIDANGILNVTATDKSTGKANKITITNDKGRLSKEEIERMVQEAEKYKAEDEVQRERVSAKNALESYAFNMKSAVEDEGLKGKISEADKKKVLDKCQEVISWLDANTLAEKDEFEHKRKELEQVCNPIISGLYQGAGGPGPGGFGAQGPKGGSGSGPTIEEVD

Sequence of HSPA8 (P11142 2-646): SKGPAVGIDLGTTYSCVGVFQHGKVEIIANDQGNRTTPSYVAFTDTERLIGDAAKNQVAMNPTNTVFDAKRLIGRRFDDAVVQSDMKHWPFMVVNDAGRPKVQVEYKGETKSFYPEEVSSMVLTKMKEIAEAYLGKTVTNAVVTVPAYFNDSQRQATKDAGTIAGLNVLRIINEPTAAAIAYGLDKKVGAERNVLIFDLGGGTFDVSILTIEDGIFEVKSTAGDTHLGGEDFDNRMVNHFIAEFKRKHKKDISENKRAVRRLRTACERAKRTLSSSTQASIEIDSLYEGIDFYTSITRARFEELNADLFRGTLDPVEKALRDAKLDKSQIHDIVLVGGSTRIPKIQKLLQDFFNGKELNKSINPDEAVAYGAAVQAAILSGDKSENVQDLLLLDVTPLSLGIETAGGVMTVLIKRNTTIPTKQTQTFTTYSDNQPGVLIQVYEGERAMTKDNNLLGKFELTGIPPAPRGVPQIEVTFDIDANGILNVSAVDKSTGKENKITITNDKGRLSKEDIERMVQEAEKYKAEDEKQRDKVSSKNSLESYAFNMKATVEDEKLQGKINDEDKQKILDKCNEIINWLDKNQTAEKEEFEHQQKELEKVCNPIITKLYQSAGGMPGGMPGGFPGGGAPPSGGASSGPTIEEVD

C[C@@H]1[C@]2(O[C@H]3C=C4[C@@H]5CC[C@H]6Cc7nc8c(nc7C[C@]6(C)[C@H]5C[C@@H](O)[C@]4(C)[C@]31O)C[C@@H]1CC[C@H]3C4=C[C@@H]5O[C@]6(CCC(C)(C)O6)[C@@H](C)[C@@H]5[C@@]4(C)[C@H](O)C[C@@H]3[C@@]1(C)C8)O[C@](C)(CO)C[C@H]2O [compound 3, ritterostatin GN1N]
Kd (HSPA8): 1.63 µM | Kd (HSPA1A): 0.625 µM
